Results published in PubChem BioAssay AID328 (DTP/NCI, 2004).
Values joined by “and” are separate entries in the source; they are usually repeats but may differ in a detail not shown here. Identical values can stand only once. Toxic doses and inconclusive results are not listed.

Tested on: BDF1 mice, P388 leukemia ip, median survival T/C
Assay: NCI In Vivo Anticancer Drug Screen. Data for tumor model P388 Leukemia (intraperitoneal) in B6D2F1 (BDF1) mice
Conditions: endpoint: median survival time, higher = longer survival
Outline: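 Read-out is survival of treated animals expressed relative to the vehicle group, as a T/C ratio.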

[1] = dose: 50.0 mg/kg/injection, schedule: Q01DX009 (ip), vehicle: saline with Tween-80
[2] = dose: 100.0 mg/kg/injection, schedule: Q01DX009 (ip), vehicle: saline with Tween-80
[3] = dose: 200.0 mg/kg/injection, schedule: Q01DX009 (ip), vehicle: saline with Tween-80
[4] = dose: 25.0 mg/kg/injection, schedule: Q01DX009 (ip), vehicle: Klucel (hydroxypropylcellulose) (HPC)
[5] = dose: 50.0 mg/kg/injection, schedule: Q01DX009 (ip), vehicle: Klucel (hydroxypropylcellulose) (HPC)
[6] = dose: 100.0 mg/kg/injection, schedule: Q01DX009 (ip), vehicle: Klucel (hydroxypropylcellulose) (HPC)
[7] = dose: 25.0 mg/kg/injection, schedule: Q01DX009 (ip), vehicle: water
[8] = dose: 50.0 mg/kg/injection, schedule: Q01DX009 (ip), vehicle: water
[9] = dose: 100.0 mg/kg/injection, schedule: Q01DX009 (ip), vehicle: water
[10] = dose: 100.0 mg/kg/injection, schedule: Q04DX003 (ip), vehicle: water
[11] = dose: 200.0 mg/kg/injection, schedule: Q04DX003 (ip), vehicle: water
[12] = dose: 100.0 mg/kg/injection, schedule: Q01DX009 (ip), vehicle: saline
[13] = dose: 200.0 mg/kg/injection, schedule: Q01DX009 (ip), vehicle: saline
[14] = dose: 400.0 mg/kg/injection, schedule: Q01DX009 (ip), vehicle: saline
[15] = dose: 100.0 mg/kg/injection, schedule: Q04DX003 (ip), vehicle: saline
[16] = dose: 200.0 mg/kg/injection, schedule: Q04DX003 (ip), vehicle: saline
[17] = dose: 400.0 mg/kg/injection, schedule: Q04DX003 (ip), vehicle: saline
[18] = dose: 50.0 mg/kg/injection, schedule: Q01DX009 (ip), vehicle: saline
[19] = dose: 50.0 mg/kg/injection, schedule: Q04DX003 (ip), vehicle: saline

CSc1ccc(NC(=O)N(CCCl)N=O)cc1
T/C (dose: 6.25 mg/kg/injection, schedule: Q01DX009 (ip), vehicle: saline): 100 % of control
T/C (dose: 6.25 mg/kg/injection, schedule: Q04DX003 (ip), vehicle: saline sonified): 90 % of control
T/C (dose: 11.0 mg/kg/injection, schedule: Q04DX003 (ip), vehicle: saline sonified): 100 % of control
T/C (dose: 12.5 mg/kg/injection, schedule: Q01DX009 (ip), vehicle: saline): 100 % of control
T/C (dose: 12.5 mg/kg/injection, schedule: Q04DX003 (ip), vehicle: saline sonified): 109 % of control
T/C (dose: 16.0 mg/kg/injection, schedule: Q04DX003 (ip), vehicle: saline sonified): 122 % of control
T/C (dose: 25.0 mg/kg/injection, schedule: Q01DX009 (ip), vehicle: saline): 116 % of control
T/C (dose: 37.5 mg/kg/injection, schedule: Q04DX003 (ip), vehicle: saline sonified): 122 % of control

C=C1CCCCC1O (centres undefined)
T/C [1]: 101 % of control
T/C [2]: 95 % of control
T/C [3]: 101 % of control

Cc1cc(N(CCC(=O)O)CCC(=O)O)ccc1/C=C/c1ccc2cc(Cl)ccc2[n+]1C
T/C (dose: 12.5 mg/kg/injection, schedule: Q01DX001 (ip), vehicle: saline with Tween-80): 96 % of control
T/C (dose: 25.0 mg/kg/injection, schedule: Q01DX001 (ip), vehicle: saline with Tween-80): 96 % of control
T/C (dose: 50.0 mg/kg/injection, schedule: Q01DX001 (ip), vehicle: saline with Tween-80): 94 % of control

CC(C)=NOC(=O)Nc1ccc(Cl)cc1
T/C [4]: 111 % of control
T/C [5]: 118 % of control
T/C [6]: 124 % of control

Cc1c2oc3c(C)ccc(C(=O)NC(C)Cc4ccccc4)c3nc-2c(C(=O)NC(C)Cc2ccccc2)c(N)c1=O (centres undefined)
T/C (dose: 100.0 mg/kg/injection, schedule: Q04DX002 (ip), vehicle: DMSO): 87 % of control
T/C (dose: 200.0 mg/kg/injection, schedule: Q04DX002 (ip), vehicle: DMSO): 92 % of control

C[n+]1c2ccccc2cc2ccccc21
T/C (dose: 25.0 mg/kg/injection, schedule: Q01DX009 (ip), vehicle: saline with Tween-80): 118 % of control

[Cl][Pt+2]([Cl])([Cl])[Cl].c1ccc(C2CC[N-]CC2)cc1.c1ccc(C2CC[N-]CC2)cc1
T/C [4]: 121 % of control
T/C [7]: 103 % of control and 122 % of control
T/C [5]: 112 % of control
T/C [8]: 112 % of control
T/C (dose: 50.0 mg/kg/injection, schedule: Q04DX003 (ip), vehicle: water): 109 % of control
T/C [6]: 121 % of control
T/C [9]: 90 % of control
T/C [10]: 105 % of control
T/C [11]: 98 % of control
T/C (dose: 400.0 mg/kg/injection, schedule: Q04DX003 (ip), vehicle: water): 89 % of control

NC(=O)CC(N)c1nn[nH]n1 (centres undefined)
T/C [12]: 95 % of control
T/C [13]: 100 % of control
T/C [14]: 90 % of control

CC1(O)C=CC(=O)C=C1
T/C [7]: 157 % of control
T/C [8]: 173 % of control

CC([NH-])C(=O)O.CC([NH-])C(=O)O.CC([NH-])C(=O)O.[Co+3] (centres undefined)
T/C [7]: 103 % of control
T/C [8]: 92 % of control
T/C [9]: 92 % of control
T/C [10]: 116 % of control
T/C [11]: 90 % of control

COc1ccc(C(=O)c2cc(OC)c(OC)c(OC)c2)cc1OC
T/C [6]: 92 % of control
T/C [12]: 109 % of control
T/C (dose: 100.0 mg/kg/injection, schedule: Q04DX003 (ip), vehicle: Klucel (hydroxypropylcellulose) (HPC)): 95 % of control
T/C (dose: 200.0 mg/kg/injection, schedule: Q01DX009 (ip), vehicle: Klucel (hydroxypropylcellulose) (HPC)): 107 % of control
T/C [13]: 113 % of control
T/C (dose: 200.0 mg/kg/injection, schedule: Q04DX003 (ip), vehicle: Klucel (hydroxypropylcellulose) (HPC)): 104 % of control
T/C (dose: 400.0 mg/kg/injection, schedule: Q01DX009 (ip), vehicle: Klucel (hydroxypropylcellulose) (HPC)): 107 % of control
T/C [14]: 122 % of control
T/C (dose: 400.0 mg/kg/injection, schedule: Q04DX003 (ip), vehicle: Klucel (hydroxypropylcellulose) (HPC)): 95 % of control

C[C@]12CC[C@@H]3c4ccc(OC5CCCCO5)cc4CC[C@H]3[C@@H]1CC[C@@H]2O (some centres undefined)
T/C [12]: 105 % of control
T/C [15]: 100 % of control
T/C [13]: 95 % of control
T/C [16]: 100 % of control
T/C [17]: 100 % of control

CCOC(=O)C1CC[N+](=c2cc(-c3ccc(Cl)cc3)ss2)CC1 (centres undefined)
T/C [18]: 101 % of control
T/C [19]: 106 % of control
T/C [12]: 99 % of control
T/C [15]: 116 % of control
T/C [16]: 116 % of control
T/C [17]: 116 % of control

CCCCCCNP(=O)(N1CC1)N1CC1
T/C (dose: 16.5 mg/kg/injection, schedule: Q04DX003 (ip), vehicle: saline with Tween-80): 168 % of control
T/C (dose: 25.0 mg/kg/injection, schedule: Q04DX003 (ip), vehicle: saline with Tween-80): 227 % of control
T/C (dose: 37.5 mg/kg/injection, schedule: Q04DX003 (ip), vehicle: saline with Tween-80): 272 % of control

CCC(=O)NC(N)=S
T/C (dose: 12.5 mg/kg/injection, schedule: Q04DX003 (ip), vehicle: Klucel (hydroxypropylcellulose) (HPC)): 100 % of control
T/C (dose: 25.0 mg/kg/injection, schedule: Q04DX003 (ip), vehicle: Klucel (hydroxypropylcellulose) (HPC)): 100 % of control
T/C (dose: 50.0 mg/kg/injection, schedule: Q04DX003 (ip), vehicle: Klucel (hydroxypropylcellulose) (HPC)): 100 % of control

COc1ccc(SC/C(=N\NOS(=O)(=O)c2ccc(C)cc2)c2ccccc2)cc1
T/C [18]: 96 % of control
T/C [12]: 98 % of control
T/C [13]: 109 % of control

FC(F)(F)c1cc(-c2ccc(C3Nc4ccccc4-n4cccc43)o2)cc(C(F)(F)F)c1 (centres undefined)
T/C [1]: 92 % of control
T/C [2]: 90 % of control
T/C [3]: 92 % of control

C/C=C1/C(=O)O[C@]23C=C[C@@H]4C(C(=O)OC)=CO[C@H](O[C@@H]12)[C@@H]43
T/C (dose: 0.27 mg/kg/injection, schedule: Q01DX009 (ip), vehicle: saline): 110 % of control
T/C (dose: 0.55 mg/kg/injection, schedule: Q01DX009 (ip), vehicle: saline): 110 % of control
T/C (dose: 1.1 mg/kg/injection, schedule: Q01DX009 (ip), vehicle: saline): 110 % of control
T/C (dose: 2.2 mg/kg/injection, schedule: Q01DX009 (ip), vehicle: saline): 110 % of control
T/C (dose: 165.0 micrograms/kg/injection, schedule: Q01DX009 (ip), vehicle: Klucel (hydroxypropylcellulose) (HPC)): 115 % of control
T/C (dose: 310.0 micrograms/kg/injection, schedule: Q01DX009 (ip), vehicle: Klucel (hydroxypropylcellulose) (HPC)): 115 % of control
T/C (dose: 1250.0 micrograms/kg/injection, schedule: Q01DX009 (ip), vehicle: Klucel (hydroxypropylcellulose) (HPC)): 115 % of control

NC(Cn1ccc(=O)c(O)c1)C(=O)O (centres undefined)
T/C [18]: 95 % of control
T/C [12]: 100 % of control
T/C [13]: 108 % of control
T/C [14]: 122 % of control

COc1cccc2c1C(=O)c1c(O)c3c(c(O)c1C2=O)CC(O)(/C(C)=N/NC(=O)CCCCCCCCC(=O)N/N=C(\C)C1(O)Cc2c(O)c4c(c(O)c2C(OC2CC(N)C(O)C(C)O2)C1)C(=O)c1c(OC)cccc1C4=O)CC3OC1CC(N)C(O)C(C)O1 (centres undefined)
T/C (dose: 3.13 mg/kg/injection, schedule: Q01DX009 (ip), vehicle: water): 172 % of control
T/C (dose: 6.25 mg/kg/injection, schedule: Q01DX009 (ip), vehicle: water): 210 % of control
T/C [7]: 88 % of control

O=[N+]([O-])c1ccc(S(=O)(=O)c2ccc([N+](=O)[O-])c3no[n+]([O-])c23)cc1
T/C (dose: 15.0 mg/kg/injection, schedule: Q01DX009 (ip), vehicle: saline with Tween-80): 100 % of control
T/C (dose: 30.0 mg/kg/injection, schedule: Q01DX009 (ip), vehicle: saline with Tween-80): 90 % of control

C[S+](C)CC(=O)c1ccccc1
T/C (dose: 50.0 mg/kg/injection, schedule: Q01DX001 (ip), vehicle: saline): 116 % of control
T/C [19]: 91 % of control
T/C (dose: 100.0 mg/kg/injection, schedule: Q01DX001 (ip), vehicle: saline): 116 % of control
T/C [15]: 95 % of control
T/C (dose: 200.0 mg/kg/injection, schedule: Q01DX001 (ip), vehicle: saline): 112 % of control
T/C [16]: 95 % of control
